Some results are limits rather than exact numbers.

For assay [1], the target named is T1, NDM-1 (Klebsiella pneumoniae, UniProt C7C422). The experiment in a line: biochemical. Conditions: cleavage of imipenem (100 uM) by NDM-1; read-out: Ki, Imipenem.
The next assay has as its target T2, VIM-1 (Pseudomonas aeruginosa, UniProt A0A0F7KYQ8).
T2 construct: made in house; host or cells: ECM6711 strain carrying pUCP24-VIM-1 plasmid; culture supernatant used unpurified
The experiment in a line: biochemical. Conditions: cleavage of nitrocefin (200 uM) by VIM-1 supernatant.

The target of assay [2] is T3, purified class A, C and D enzymes (UniProt P0AD64, L31Q/G234S/E235K, species not given).
T3 construct: Ki (SHV-12, NCF); other: purified SHV-12; nitrocefin reporter substrate
T3 sequence (P0AD64 1-286 L31Q/G234S/E235K): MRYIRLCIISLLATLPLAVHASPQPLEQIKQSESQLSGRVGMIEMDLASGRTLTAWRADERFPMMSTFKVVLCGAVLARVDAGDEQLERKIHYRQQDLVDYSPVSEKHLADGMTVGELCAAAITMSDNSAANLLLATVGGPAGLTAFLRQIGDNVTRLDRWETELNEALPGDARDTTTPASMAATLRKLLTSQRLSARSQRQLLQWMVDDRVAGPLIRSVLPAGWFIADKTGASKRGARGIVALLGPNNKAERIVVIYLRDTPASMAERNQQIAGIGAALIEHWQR
The class given is biochemical. Conditions: read-out: Ki (SHV-12, NCF); purified SHV-12; nitrocefin reporter substrate.

Assay [3] concerns the target purified class A, C and D enzymes (Escherichia coli, UniProt Q9L5C7). The class given is biochemical. Conditions: purified CTX-M-14; nitrocefin reporter substrate.
Assay [4] concerns the target T4, purified class A, C and D enzymes (UniProt Q6XEC0).
T4 construct: rows headed: Ki (OXA-48, NCF); other: purified OXA-48; nitrocefin reporter substrate
The class given is biochemical. Conditions: read-out: Ki (OXA-48, NCF); purified OXA-48; nitrocefin reporter substrate.

For assay [5], the target named is purified class A, C and D enzymes (Enterobacter cloacae, UniProt P05364). It is filed as biochemical. The conditions noted are these: purified P99/AmpC of ECL; nitrocefin reporter substrate.
Assay [6] addresses T5, purified class A, C and D enzymes (UniProt Q9F663).
T5 construct: rows headed: Ki (KPC-2, NCF); other: purified KPC-2; nitrocefin reporter substrate
The class given is biochemical. The conditions noted are these: read-out: Ki (KPC-2, NCF); purified KPC-2; nitrocefin reporter substrate.

Assay [7] has as its target T1, NDM-1. The experiment in a line: Inhibition of purified class B carbapenemase NDM-1 (Ki, imipenem substrate). The class given is biochemical. The conditions noted are these: NDM-1, substrate imipenem; read-out: Ki NDM-1, Imipenem.

T1 sequence (C7C422 29-270, looked up, species assumed): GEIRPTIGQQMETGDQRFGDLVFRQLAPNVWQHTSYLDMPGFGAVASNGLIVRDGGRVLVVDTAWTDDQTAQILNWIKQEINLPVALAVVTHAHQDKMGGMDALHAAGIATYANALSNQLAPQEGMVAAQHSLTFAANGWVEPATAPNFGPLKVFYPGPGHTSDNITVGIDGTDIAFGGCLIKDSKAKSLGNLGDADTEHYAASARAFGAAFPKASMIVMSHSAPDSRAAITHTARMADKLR
Chain of purified class A, C and D enzymes (Enterobacter cloacae, UniProt P05364) (P05364 21-381): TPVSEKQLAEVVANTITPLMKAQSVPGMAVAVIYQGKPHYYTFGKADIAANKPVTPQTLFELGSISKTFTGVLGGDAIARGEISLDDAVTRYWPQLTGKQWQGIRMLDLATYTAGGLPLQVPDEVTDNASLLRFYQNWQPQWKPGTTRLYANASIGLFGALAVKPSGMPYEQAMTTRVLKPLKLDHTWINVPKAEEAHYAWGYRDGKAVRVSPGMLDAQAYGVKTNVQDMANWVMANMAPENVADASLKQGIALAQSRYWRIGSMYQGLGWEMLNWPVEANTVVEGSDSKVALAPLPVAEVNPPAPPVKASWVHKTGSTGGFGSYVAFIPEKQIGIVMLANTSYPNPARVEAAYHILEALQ
Chain of purified class A, C and D enzymes (Escherichia coli, UniProt Q9L5C7) (Q9L5C7 entry or part of it): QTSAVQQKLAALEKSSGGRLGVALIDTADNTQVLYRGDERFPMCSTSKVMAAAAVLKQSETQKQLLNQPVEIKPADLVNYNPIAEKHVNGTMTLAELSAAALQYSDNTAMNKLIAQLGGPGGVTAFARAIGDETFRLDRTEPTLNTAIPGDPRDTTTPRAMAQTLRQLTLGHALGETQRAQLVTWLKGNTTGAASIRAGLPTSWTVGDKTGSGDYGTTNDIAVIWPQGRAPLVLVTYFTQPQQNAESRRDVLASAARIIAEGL

Regarding `COc1ccc2c(c1C(=O)O)OB(O)[C@@H](Sc1nnc(C(F)(F)F)n1N)C2` [Compound 64, (3R)-3-[[4-amino-5-(trifluoromethyl)-1,2,4-triazol-3-yl]sulfanyl]-2-hydroxy-7-methoxy-3,4-dihydro-1,2-benzoxaborinine-8-carboxylic acid], the Ki at NDM-1 [1] was > 100 nM; in assay [2], < 100 nM; in assay [4], < 100 nM; in assay [6], 100 to 1000 nM; at NDM-1 [7], > 100 nM. Besides, the IC50 on VIM-1 was < 1000 nM. In addition, the “Ki (CTX-M-14, NCF)” value in assay [3] is “X (Less than 0.1 μM)”. Moreover, the “Ki (P99/AmpC of ECL, NCF)” value in assay [5] is reported as “Z (Greater than 1 μM)”.
Turning to `C[S+]([O-])c1ccc2c(c1C(=O)O)OB(O)[C@@H](Sc1nnc(N)s1)C2` (stereo partly drawn) [Compound 34, (3R)-3-(5-amino-1,3,4-thiadiazol-2-ylthio)-2-hydroxy-7-(methylsulfinyl)-3,4-dihydro-2H-benzo[e][1,2]oxaborinine-8-carboxylic acid], the inhibition constant (Ki) on NDM-1 [1] is 10 to 100 nM; in assay [2], < 100 nM; in assay [4], < 100 nM; in assay [6], 100 to 1000 nM; at NDM-1 [7] it was 10 to 100 nM. Also, the IC50 against VIM-1 was < 1000 nM. In assay [3], the “Ki (CTX-M-14, NCF)” value was “X (Less than 0.1 μM)”. In assay [5], the “Ki (P99/AmpC of ECL, NCF)” value is on record as “X (Less than 0.1 μM)”.
As for `COc1ccc2c(c1C(=O)O)OB(O)[C@@H](Sc1nnc(CN3CCNCC3)n1N)C2` [Compound 71, (3R)-3-[[4-amino-5-(piperazin-1-ylmethyl)-1,2,4-triazol-3-yl]sulfanyl]-2-hydroxy-7-methoxy-3,4-dihydro-1,2-benzoxaborinine-8-carboxylic acid], the Ki was 10 to 100 nM on NDM-1 [1]; < 100 nM in assay [2]; 100 to 1000 nM in assay [4]; 100 to 1000 nM in assay [6]; 10 to 100 nM on NDM-1 [7]. For the same molecule, the IC50 on VIM-1 is < 1000 nM. For the same molecule, in assay [3], the “Ki (CTX-M-14, NCF)” value is on record as “X (Less than 0.1 μM)”. Also, in assay [5], the “Ki (P99/AmpC of ECL, NCF)” value is listed as “Z (Greater than 1 μM)”.
Take `O=C(O)c1c(OCC(F)F)ccc2c1OB(O)[C@@H](Sc1nncs1)C2` [Compound 91, (3R)-7-(2,2-difluoroethoxy)-2-hydroxy-3-(1,3,4-thiadiazol-2-ylsulfanyl)-3,4-dihydro-1,2-benzoxaborinine-8-carboxylic acid]: the Ki at NDM-1 [1] is 10 to 100 nM; in assay [2], < 100 nM; in assay [4], < 100 nM; in assay [6], 100 to 1000 nM; on NDM-1 [7], 10 to 100 nM. In addition, on VIM-1, the IC50 is < 1000 nM. Besides, the “Ki (CTX-M-14, NCF)” value in assay [3] is given as “X (Less than 0.1 μM)”. Further, the “Ki (P99/AmpC of ECL, NCF)” value in assay [5] is recorded as “Y (0.1 μM to 1 μM)”.
Consider `CC(C)Oc1ccc2c(c1C(=O)O)OB(O)[C@@H](Sc1nncs1)C2` [Compound 85, (3R)-2-hydroxy-7-isopropoxy-3-(1,3,4-thiadiazol-2-ylsulfanyl)-3,4-dihydro-1,2-benzoxaborinine-8-carboxylic acid], for which the inhibition constant Ki on NDM-1 [1] was > 100 nM; in assay [2], < 100 nM; in assay [4], < 100 nM; in assay [6] it was 100 to 1000 nM; on NDM-1 [7], > 100 nM. Further, the IC50 against VIM-1 is < 1000 nM. Moreover, in assay [3], the “Ki (CTX-M-14, NCF)” value is on record as “X (Less than 0.1 μM)”. Besides, the “Ki (P99/AmpC of ECL, NCF)” value in assay [5] is listed as “Y (0.1 μM to 1 μM)”.
For the molecule `Nc1nnc(S[C@H]2Cc3c(F)cc(F)c(C(=O)O)c3OB2O)s1` [Compound 33, (R)-3-(5-amino-1,3,4-thiadiazol-2-ylthio)-5,7-difluoro-2-hydroxy-3,4-dihydro-2H-benzo[e][1,2]oxaborinine-8-carboxylic acid], the Ki at NDM-1 [1] was > 100 nM; in assay [2], < 100 nM; in assay [4], < 100 nM; in assay [6], 100 to 1000 nM; at NDM-1 [7], 10 to 100 nM. In addition, at VIM-1, the IC50 was ≥ 1000 nM. For the same molecule, the “Ki (CTX-M-14, NCF)” value in assay [3] is listed as “X (Less than 0.1 μM)”. Besides, the “Ki (P99/AmpC of ECL, NCF)” value in assay [5] is reported as “X (Less than 0.1 μM)”.
For the molecule `COc1ccc2c(c1C(=O)O)OB(O)[C@@H](Sc1cncs1)C2` [Compound 69, (3R)-2-hydroxy-7-methoxy-3-thiazol-5-ylsulfanyl-3,4-dihydro-1,2-benzoxaborinine-8-carboxylic acid], the Ki is > 100 nM at NDM-1 [1]; < 100 nM in assay [2]; < 100 nM in assay [4]; < 100 nM in assay [6]; > 100 nM at NDM-1 [7]. Besides, the IC50 against VIM-1 is < 1000 nM. In addition, the “Ki (CTX-M-14, NCF)” value in assay [3] is on record as “X (Less than 0.1 μM)”. In addition, the “Ki (P99/AmpC of ECL, NCF)” value in assay [5] is on record as “Y (0.1 μM to 1 μM)”.
On to `Nc1nnc(S[C@H]2Cc3cc(F)c(F)c(C(=O)O)c3OB2O)s1` [Compound 37, (R)-3-(5-amino-1,3,4-thiadiazol-2-ylthio)-6,7-difluoro-2-hydroxy-3,4-dihydro-2H-benzo[e][1,2]oxaborinine-8-carboxylic acid], for which the Ki on NDM-1 [1] was 10 to 100 nM; in assay [2], < 100 nM; in assay [4] it was < 100 nM; in assay [6], < 100 nM; on NDM-1 [7], 10 to 100 nM. For the same molecule, the IC50 against VIM-1 is ≥ 1000 nM. Also, the “Ki (CTX-M-14, NCF)” value in assay [3] is listed as “X (Less than 0.1 μM)”. Also, in assay [5], the “Ki (P99/AmpC of ECL, NCF)” value is reported as “Z (Greater than 1 μM)”.
Turning to `COCc1ccc2c(c1C(=O)O)OB(O)[C@@H](Sc1nnc(N)s1)C2` [Compound 35, (R)-3-(5-amino-1,3,4-thiadiazol-2-ylthio)-2-hydroxy-7-(methoxymethyl)-3,4-dihydro-2H-benzo[e][1,2]oxaborinine-8-carboxylic acid], the inhibition constant Ki on NDM-1 [1] was 10 to 100 nM; in assay [2] it was < 100 nM; in assay [4], < 100 nM; in assay [6] it was < 100 nM; at NDM-1 [7], 10 to 100 nM. For the same molecule, on VIM-1, the IC50 is < 1000 nM. In addition, the “Ki (CTX-M-14, NCF)” value in assay [3] is recorded as “X (Less than 0.1 μM)”. Further, the “Ki (P99/AmpC of ECL, NCF)” value in assay [5] is “Y (0.1 μM to 1 μM)”.
Regarding `CCOc1ccc2c(c1C(=O)O)OB(O)[C@@H](Sc1nnc(NC3CNC3)s1)C2` [Compound 118, (3R)-3-[[5-(azetidin-3-ylamino)-1,3,4-thiadiazol-2-yl]sulfanyl]-7-ethoxy-2-hydroxy-3,4-dihydro-1,2-benzoxaborinine-8-carboxylic acid], the Ki was > 100 nM at NDM-1 [1]; < 100 nM in assay [2]; < 100 nM in assay [4]; 100 to 1000 nM in assay [6]; > 100 nM on NDM-1 [7]. Besides, the IC50 on VIM-1 was < 1000 nM. For the same molecule, the “Ki (CTX-M-14, NCF)” value in assay [3] was “X (Less than 0.1 μM)”. Also, the “Ki (P99/AmpC of ECL, NCF)” value in assay [5] is “Y (0.1 μM to 1 μM)”.
In the case of `NCCSc1nnc(S[C@H]2Cc3cccc(C(=O)O)c3OB2O)s1` [Compound 116, (3R)-3-[[5-(2-aminoethylsulfanyl)-1,3,4-thiadiazol-2-yl]sulfanyl]-2-hydroxy-3,4-dihydro-1,2-benzoxaborinine-8-carboxylic acid], the inhibition constant Ki was < 10 nM on NDM-1 [1]; < 100 nM in assay [2]; < 100 nM in assay [4]; < 100 nM in assay [6]; < 10 nM at NDM-1 [7]. Besides, the IC50 against VIM-1 is < 1000 nM. Besides, the “Ki (CTX-M-14, NCF)” value in assay [3] is given as “X (Less than 0.1 μM)”. In addition, the “Ki (P99/AmpC of ECL, NCF)” value in assay [5] is “X (Less than 0.1 μM)”.
On to `COc1ccc2c(c1C(=O)O)OB(O)[C@@H](Sc1nnc(SCCN)s1)C2` [Compound 107, (3R)-3-[[5-(2-aminoethylsulfanyl)-1,3,4-thiadiazol-2-yl]sulfanyl]-2-hydroxy-7-methoxy-3,4-dihydro-1,2-benzoxaborinine-8-carboxylic acid], for which the Ki on NDM-1 [1] is < 10 nM; in assay [2], < 100 nM; in assay [4], < 100 nM; in assay [6], 100 to 1000 nM; on NDM-1 [7] it was < 10 nM. Further, on VIM-1, the IC50 is < 1000 nM. Further, the “Ki (CTX-M-14, NCF)” value in assay [3] was “X (Less than 0.1 μM)”. In addition, the “Ki (P99/AmpC of ECL, NCF)” value in assay [5] is given as “Y (0.1 μM to 1 μM)”.
For the molecule `COc1ccc2c(c1C(=O)O)OB(O)[C@@H](Sc1nnc(SCCN3CCOCC3)s1)C2` [Compound 110, (3R)-2-hydroxy-7-methoxy-3-[[5-(2-morpholinoethylsulfanyl)-1,3,4-thiadiazol-2-yl]sulfanyl]-3,4-dihydro-1,2-benzoxaborinine-8-carboxylic acid], the Ki on NDM-1 [1] was > 100 nM; in assay [2], < 100 nM; in assay [4], < 100 nM; in assay [6] it was < 100 nM; at NDM-1 [7] it was > 100 nM. Besides, the IC50 on VIM-1 is < 1000 nM. Moreover, the “Ki (CTX-M-14, NCF)” value in assay [3] is “X (Less than 0.1 μM)”. Also, the “Ki (P99/AmpC of ECL, NCF)” value in assay [5] is reported as “Y (0.1 μM to 1 μM)”.

The record behind these values is patent US10206937B2, “Boronic acid derivatives and therapeutic uses thereof” (Qpex Biopharma, Inc., priority 2014, dated 2019).
